Converted amounts (≈) assume the structure as drawn.
Key:
Experiment in all cases: ≥ marks a high value that may be exact or a test limit, other limits are often not marked, values filed in µg/mL are converted to µM
[1] = test system: Staphylococcus aureus ATCC 25923
Escherichia coli ML-35p = test system: Escherichia coli ML-35p
[2] = test system: Candida albicans ATCC 2002
[3] = test system: Staphylococcus aureus ATCC 43300
Bacillus subtilis = test system: Bacillus subtilis
[4] = test system: Escherichia coli ATCC 25726
[5] = test system: Candida albicans ATCC 90028
[6] = test system: Batrachochytrium dendrobatidis JEL-197
[7] = test system: Pseudomonas aeruginosa ATCC 27853
[8] = test system: Staphylococcus epidermidis ATCC 12228
[9] = test system: Escherichia coli ATCC 25922
[10] = test system: Salmonella enterica subsp. enterica serovar Pullorum C79-13
[11] = test system: Bacillus subtilis CMCC 63501
[12] = test system: Enterococcus faecalis ATCC 29212
[13] = test system: Salmonella enterica subsp. enterica serovar Typhimurium C77-31
[14] = test system: Staphylococcus aureus ATCC 29213
Listeria innocua = test system: Listeria innocua
Escherichia coli = test system: Escherichia coli
Streptococcus uberis = test system: Streptococcus uberis
Staphylococcus aureus = test system: Staphylococcus aureus
Pasteurella multocida = test system: Pasteurella multocida
Bacillus cereus = test system: Bacillus cereus
Leuconostoc lactis = test system: Leuconostoc lactis
[15] = test system: Staphylococcus epidermidis
Micrococcus luteus = test system: Micrococcus luteus
[16] = test system: Cronobacter sakazakii DPC 6440
[17] = test system: Listeria monocytogenes LO28
Escherichia coli O111 = test system: Escherichia coli O111

`CC[C@H](C)[C@H](NC(=O)CNC(=O)[C@H](C)NC(=O)[C@H](C)NC(=O)[C@@H](NC(=O)[C@H](CCCCN)NC(=O)[C@H](CC(C)C)NC(=O)[C@@H](NC(=O)[C@@H]1CCCN1C(=O)CNC(=O)[C@@H](NC(=O)[C@@H](N)Cc1ccccc1)[C@@H](C)CC)C(C)C)[C@@H](C)CC)C(=O)N[C@@H](CC(C)C)C(=O)N1CCC[C@H]1C(=O)N[C@H](C(=O)N[C@@H](C)C(=O)N[C@H](C(=O)N[C@H]1CSSC[C@@H](C(=O)O)NC(=O)[C@H](CCCCN)NC(=O)[C@H](CCCCN)NC(=O)[C@H](Cc2ccccc2)NC(=O)[C@H]([C@@H](C)CC)NC(=O)[C@H](CCCCN)NC1=O)[C@@H](C)CC)[C@@H](C)O` [FIGPVLKIAAGILPTAICKIFKKC] was tested, and the MIC [1] was 0.919 µM (≈ 2.34 µg/mL), the MIC (Escherichia coli ML-35p) was 7.37 µM (≈ 18.7 µg/mL) and the MIC [2] was 1.84 µM (≈ 4.69 µg/mL). It also gave an MIC [3] of 3.69 µM (≈ 9.37 µg/mL) and an MIC (Bacillus subtilis) of 1.84 µM (≈ 4.69 µg/mL).

In the case of `CC[C@H](C)[C@H](NC(=O)[C@H](CO)NC(=O)[C@@H]1CCCN1C(=O)[C@@H](NC(=O)[C@H](CC(C)C)NC(=O)CNC(=O)[C@H](C)NC(=O)[C@H](CC(C)C)NC(=O)[C@@H](NC(=O)[C@@H]1CCCN1C(=O)[C@H](CC(C)C)NC(=O)[C@@H](N)Cc1ccccc1)C(C)C)[C@@H](C)O)C(=O)N[C@H](C(=O)N1CCC[C@H]1C(=O)N[C@@H](CCCCN)C(=O)N[C@@H](CC(C)C)C(=O)N[C@H](C(=O)N[C@H]1CSSC[C@@H](C(=O)O)NC(=O)[C@H](CCCCN)NC(=O)[C@H](CCCCN)NC(=O)[C@H]([C@@H](C)O)NC(=O)[C@H](CC(C)C)NC(=O)[C@H](CC(C)C)NC1=O)C(C)C)C(C)C` [FLPVLAGLTPSIVPKLVCLLTKKC], the MIC [1] was 25 µM (≈ 63.8 µg/mL), the MIC [4] was ≥ 100 µM and the MIC [5] was 25 µM (≈ 63.8 µg/mL). It also gave an MIC [6] of 12.5 µM (≈ 31.9 µg/mL).

`NC(=O)[C@H](Cc1ccccc1)NC(=O)[C@H](CCCN=C(N)N)NC(=O)[C@H](Cc1ccccc1)NC(=O)[C@H](CCCN=C(N)N)NC(=O)[C@H](CS)NC(=O)[C@H](Cc1ccccc1)NC(=O)[C@H](CCCN=C(N)N)NC(=O)[C@H](CCCN=C(N)N)NC(=O)[C@H](CCCN=C(N)N)NC(=O)[C@H](CS)NC(=O)[C@H](CCCN=C(N)N)NC(=O)[C@H](Cc1ccccc1)NC(=O)[C@H](CCCN=C(N)N)NC(=O)[C@@H](N)Cc1ccccc1` [FRFRCRRRFCRFRF] showed an MIC [7] of 4 µM (≈ 8.21 µg/mL), an MIC [8] of 2 µM (≈ 4.11 µg/mL) and an MIC [9] of 1 µM (≈ 2.05 µg/mL). It also gave an MIC [10] of 1 µM (≈ 2.05 µg/mL), an MIC [11] of 2 µM (≈ 4.11 µg/mL) and an MIC [12] of 4 µM (≈ 8.21 µg/mL). For the same molecule, the MIC [13] was 2 µM (≈ 4.11 µg/mL) and the MIC [14] was 2 µM (≈ 4.11 µg/mL).

With `CC[C@H](C)[C@H](NC(=O)[C@@H](NC(=O)[C@H](CO)NC(=O)[C@H](C)NC(=O)[C@@H](NC(=O)[C@H](CCCCN)NC(=O)[C@H](CCCCN)NC(=O)[C@@H](NC(=O)[C@@H](NC(=O)[C@H](CC(=O)O)NC(=O)[C@H](Cc1ccccc1)NC(=O)[C@H](CC(C)C)NC(=O)CN)C(C)C)[C@@H](C)CC)C(C)C)C(C)C)C(=O)N[C@@H](CCCCN)C(=O)N[C@@H](CCCCN)C(=O)N[C@@H](CC(C)C)C(N)=O` [GLFDVIKKVASVIKKL] the MIC (Listeria innocua) was 28.4 µM (≈ 50 µg/mL), the MIC (Escherichia coli) was > 56.9 µM and the MIC (Streptococcus uberis) was 28.4 µM (≈ 50 µg/mL). For the same molecule, the MIC (Staphylococcus aureus) was 56.9 µM (≈ 99.9 µg/mL), the MIC (Pasteurella multocida) was ≥ 56.9 µM and the MIC (Bacillus cereus) was 14.2 µM (≈ 25 µg/mL). The MIC (Leuconostoc lactis) was 1.71 µM (≈ 3 µg/mL), the MIC [15] was 6.83 µM (≈ 12 µg/mL) and the MIC (Micrococcus luteus) was 28.4 µM (≈ 50 µg/mL).

With `CC[C@H](C)[C@H](NC(=O)[C@H](C)NC(=O)[C@@H]1CCCN1C(=O)[C@H](CC(C)C)NC(=O)[C@@H](NC(=O)[C@H](Cc1cnc[nH]1)NC(=O)[C@H](CO)NC(=O)[C@@H](NC(=O)[C@@H](NC(=O)[C@H](CO)NC(=O)CNC(=O)[C@H](CC(C)C)NC(=O)[C@H](CC(C)C)NC(=O)CNC(=O)[C@H](CC(C)C)NC(=O)[C@H](CC(C)C)NC(=O)CN)C(C)C)C(C)C)C(C)C)C(=O)N[C@H](C(=O)N[C@@H](CCC(N)=O)C(=O)N[C@@H](Cc1cnc[nH]1)C(=O)N[C@@H](CC(C)C)C(N)=O)[C@@H](C)O` [GLLGLLGSVVSHVLPAITQHL] the MIC (Listeria innocua) was ≥ 47.1 µM, the MIC (Escherichia coli) was > 47.1 µM and the MIC (Streptococcus uberis) was 23.5 µM (≈ 50 µg/mL). For the same molecule, the MIC (Staphylococcus aureus) was 23.5 µM (≈ 50 µg/mL), the MIC (Pasteurella multocida) was ≥ 47.1 µM and the MIC (Bacillus cereus) was ≥ 47.1 µM. The MIC (Leuconostoc lactis) was 2.82 µM (≈ 6 µg/mL), the MIC [15] was 23.5 µM (≈ 50 µg/mL) and the MIC (Micrococcus luteus) was 23.5 µM (≈ 50 µg/mL).

`CCC(C)[C@H](N=C(O)C(CO)N=C(O)[C@H](CO)N=C(O)[C@@H](N=C(O)C(CC(C)C)N=C(O)CN)C(C)C)C(O)=NCC(O)=N[C@@H](CCCNC(=N)N)C(O)=N[C@@H](C)C(O)=N[C@@H](CC(C)C)C(O)=NCC(O)=NCC(O)=N[C@@H](CC(C)C)C(O)=N[C@@H](CC(C)C)C(O)=N[C@@H](C)C(O)=NC(CC(=O)O)C(O)=NC(C(O)=N[C@@H](C(O)=N[C@H](CCCCN)C(O)=N[C@H](CO)C(O)=N[C@H](CCCCN)C(O)=NCC(O)=N[C@H](CCC(=N)O)C(=O)N1CCCC1C(O)=N[C@H](C)C(=O)O)C(C)C)C(C)C` (some centres undefined) [GLVSSIGRALGGLLADVVKSKGQPA] was tested, and the MIC (Listeria innocua) was ≥ 41.8 µM, the MIC (Escherichia coli) was > 41.8 µM and the MIC (Streptococcus uberis) was ≥ 41.8 µM. For the same molecule, the MIC (Staphylococcus aureus) was > 41.8 µM, the MIC (Pasteurella multocida) was 10.4 µM (≈ 25 µg/mL) and the MIC (Bacillus cereus) was ≥ 41.8 µM. For the same molecule, the MIC (Leuconostoc lactis) was ≥ 41.8 µM, the MIC [15] was ≥ 41.8 µM and the MIC (Micrococcus luteus) was ≥ 41.8 µM.

In the case of `CC[C@H](C)[C@H](NC(=O)[C@@H](NC(=O)CN)C(C)C)C(=O)N[C@@H](CC(=O)O)C(=O)N[C@@H](C)C(=O)N[C@@H](C)C(=O)N[C@@H](C)C(=O)N[C@@H](CCCCN)C(=O)N[C@H](C(=O)N[C@H](C(=O)N[C@@H](CC(N)=O)C(=O)N[C@H](C(=O)N[C@@H](CC(C)C)C(=O)N[C@@H](CCCCN)C(=O)N[C@@H](CC(N)=O)C(=O)N[C@@H](CC(C)C)C(=O)N[C@@H](Cc1ccccc1)C(N)=O)C(C)C)C(C)C)C(C)C` [GVIDAAAKVVNVLKNLF], the MIC (Listeria innocua) was ≥ 56.5 µM, the MIC (Escherichia coli) was > 56.5 µM and the MIC (Streptococcus uberis) was 28.2 µM (≈ 50 µg/mL). For the same molecule, the MIC (Staphylococcus aureus) was > 56.5 µM, the MIC (Pasteurella multocida) was ≥ 56.5 µM and the MIC (Bacillus cereus) was ≥ 56.5 µM. The MIC (Leuconostoc lactis) was 6.78 µM (≈ 12 µg/mL), the MIC [15] was ≥ 56.5 µM and the MIC (Micrococcus luteus) was ≥ 56.5 µM.

For `CC[C@H](C)[C@H](NC(=O)[C@@H](NC(=O)[C@H](CCCCN)NC(=O)[C@@H](N)[C@@H](C)O)C(C)C)C(=O)N1CCC[C@H]1C(=O)N[C@@H](Cc1ccc(O)cc1)C(=O)N[C@H](C(=O)N[C@@H](CCCN=C(N)N)C(=O)N[C@@H](Cc1ccc(O)cc1)C(=O)N[C@@H](CC(C)C)C(=O)O)C(C)C` [TKVIPYVRYL], the MIC [16] was ≥ 156 µM and the MIC [17] was ≥ 78.1 µM.

`CC[C@H](C)[C@H](NC(=O)[C@@H](N)Cc1c[nH]c2ccccc12)C(=O)N[C@@H](CCC(N)=O)C(=O)N1CCC[C@H]1C(=O)N[C@@H](C)C(=O)N[C@H](C(=O)N[C@@H](C)C(=O)N[C@H](C(=O)N[C@H](C(=O)N1CCC[C@H]1C(=O)N[C@@H](Cc1ccc(O)cc1)C(=O)N[C@H](C(=O)N[C@@H](CCCN=C(N)N)C(=O)N[C@@H](Cc1ccc(O)cc1)C(=O)N[C@@H](CC(C)C)C(=O)O)C(C)C)[C@@H](C)CC)C(C)C)[C@@H](C)O` [WIQPATAVIPYVRYL] was tested, and the MIC [16] was ≥ 625 µM and the MIC [17] was ≥ 156 µM.

For `CC[C@H](C)[C@H](NC(=O)[C@H](CO)NC(=O)[C@@H]1CCCN1C(=O)[C@H](C)NC(=O)CNC(=O)[C@H](CC(C)C)NC(=O)[C@H](CCCCN)NC(=O)[C@H](CCCN=C(N)N)NC(=O)[C@H](CCSC)NC(=O)[C@H](CCCN=C(N)N)NC(=O)[C@H](CCCN=C(N)N)NC(=O)[C@H](CCC(N)=O)NC(=O)[C@@H](N)Cc1c[nH]c2ccccc12)C(=O)N[C@H](C(=O)O)[C@@H](C)O` [WQRRMRKLGAPSIT], the MIC (Escherichia coli O111) was ≥ 58.8 µM.

For `CC[C@H](C)[C@H](NC(=O)[C@H](CO)NC(=O)[C@@H]1CCCN1C(=O)[C@H](C)NC(=O)CNC(=O)[C@H](CC(C)C)NC(=O)[C@H](CCCN=C(N)N)NC(=O)[C@H](CCSC)NC(=O)[C@H](CCCN=C(N)N)NC(=O)[C@H](CCCN=C(N)N)NC(=O)[C@H](CCC(N)=O)NC(=O)[C@H](Cc1c[nH]c2ccccc12)NC(=O)[C@H](CCC(N)=O)NC(=O)[C@@H](N)Cc1ccc(O)cc1)C(=O)N[C@H](C(=O)O)[C@@H](C)O` [YQWQRRMRLGAPSIT], the MIC (Escherichia coli O111) was ≥ 322 µM.

From DBAASP
